Data as given in US20180318196A1, “COMPOSITION FOR PROTECTING THE SKIN AGAINST THE EFFECTS OF POLLUTION AND USE THEREOF” (LUBRIZOL ADVANCED MATERIALS, INC., priority 2015, published 2018).
Like-named read-outs stand apart in the source and are kept apart here.

System: Normal Human Epidermal Keratinocytes from adult (NHEK)
Test: Protection from damage induced by Urban Dust, MTT cell viability assay
Assay type: cell-based
Protocol: The capacity of protecting skin cell cultures from damage induced by Urban Dust (UD) is evaluated. The UD used is particulate matter (PMs, one of the major air pollutants with effects on the skin) collected in an urban area, Washington DC in 1976 and 1977, with an average particle size of 10.5 μm that contain polycyclic aromatic hydrocarbons (PAHs), polychlorinated biphenyl (PCBs), nitro-PAHs, chlorinated pesticides, dioxins and heavy metals: Damage is generated by the addition of UD to the culture medium and the protection effect from damage of the tested compounds is measured by a cell viability assay.
The viability is evaluated by MTT (3-[4,5-dimethylthiazol-2-yl]-2,5 diphenyl tetrazolium bromide), an absorbance-based cell viability method. Live cells present mitochondrial dehydrogenase activity that reduces the dye MTT to an insoluble blue colored product easily detected by absorbance, reflecting viable cells. […]
Then, cellular viability is evaluated. […] Then, plates are shaken for 5 minutes at room temperature protected from light and absorbance read at 570 nm with wavelength correction at 630 nm, using a Microplate Absorbance Reader (Clariostar®,BMG LabTech).
The percentage of cell viability for each condition is calculated with respect to control without pollutants (cells treated with medium alone and not treated with UD). […]

COc1cc2c(cc1O)CCC(C)(C)O2 [LPCH, 7-methoxy-2,2-dimethylchroman-6-ol]
viability at 50 µg/mL (read-out: Relative Cell Viability with Respect To Control without pollutants (%) (MEAN ± SEM), 50 μg/mL LPCH + 50 μg/mL UD): 85.8 ± 3.68% | viability at 50 µg/mL (read-out: Relative Cell Viability with Respect To Control without pollutants (%) (MEAN ± SEM), 50 μg/mL LPCH + 100 μg/mL UD): 79 ± 3.21%
